Data published in ChEMBL document CHEMBL1156113, “Synthesis of new sugar derivatives and evaluation of their antibacterial activities against Mycobacterium tuberculosis” (Bioorg Med Chem Lett, 2009).
Values after ≈ are worked out from the molar mass of the structure shown.

Assays:
[1] = tested on: Mycobacterium bovis BCG str. Tokyo 172
Description: (§1) Antibacterial activity against Mycobacterium bovis BCG str. Tokyo 172 by broth dilution method

[2] = tested on: Mycolicibacterium smegmatis
Mycobacterium avium [3] = conditions: 724S
Escherichia coli [4] = tested on: Escherichia coli
Mycobacterium avium [5] = conditions: SmO
[6] = tested on: Mycobacterium tuberculosis; conditions: H37Rv
Staphylococcus aureus [7] = tested on: Staphylococcus aureus
Mycobacterium avium [8] = assay: Antibacterial activity against Mycobacterium avium 724S by broth dilution method; assay type: functional
Staphylococcus aureus [9] = assay: Antibacterial activity against Staphylococcus aureus by broth dilution method; assay type: functional
[10] = tested on: Mycobacterium tuberculosis; assay: Antituberculosis activity against Mycobacterium tuberculosis H37Rv by broth dilution method; assay type: functional
[11] = microbe, parasite or virus in culture; assay type: functional, Mycobacterium bovis BCG str. Tokyo 172; conditions: Mycobacterium tuberculosis variant bovis BCG
Description: as §1

Mycobacterium avium [12] = assay: Antibacterial activity against Mycobacterium avium SmO by broth dilution method; assay type: functional
Escherichia coli [13] = assay: Antibacterial activity against Escherichia coli by broth dilution method; assay type: functional
[14] = tested on: Mycolicibacterium smegmatis; assay: Antibacterial activity against Mycobacterium smegmatis by broth dilution method; assay type: functional
[15] = Selectivity for Mycobacterium tuberculosis H37Rv over human MRC5 cells; design: reference not given here
[16] = Selectivity for Mycobacterium tuberculosis H37Rv over human THP1 cells; design: species or system THP-1; reference not given here
[17] = Selectivity for Mycobacterium tuberculosis H37Rv over human A549 cells; design: reference not given here
[18] = tested on: Mycobacterium tuberculosis; assay: Antimycobacterial activity against drug-susceptive Mycobacterium tuberculosis isolate A-3-13 by agar proportion method; assay type: functional
[19] = tested on: Mycobacterium tuberculosis; assay: Antimycobacterial activity against drug-susceptive Mycobacterium tuberculosis isolate A-1-3 by agar proportion method; assay type: functional
[20] = tested on: Mycobacterium tuberculosis; assay: Antimycobacterial activity against drug-susceptive Mycobacterium tuberculosis isolate A-3-12 by agar proportion method; assay type: functional
[21] = tested on: Mycobacterium tuberculosis; assay: Antimycobacterial activity against drug-susceptive Mycobacterium tuberculosis isolate A-3-6 by agar proportion method; assay type: functional
[22] = tested on: Mycobacterium tuberculosis; assay: Antimycobacterial activity against drug-susceptive Mycobacterium tuberculosis isolate A-2-5 by agar proportion method; assay type: functional
[23] = tested on: Mycobacterium tuberculosis; assay: Antimycobacterial activity against drug-susceptive Mycobacterium tuberculosis isolate A-3-16 by agar proportion method; assay type: functional
[24] = tested on: Mycobacterium tuberculosis; assay: Antimycobacterial activity against drug-susceptive Mycobacterium tuberculosis isolate A-3-22 by agar proportion method; assay type: functional
[25] = tested on: Mycobacterium tuberculosis; assay: Antimycobacterial activity against drug-susceptive Mycobacterium tuberculosis isolate A-3-9 by agar proportion method; assay type: functional
[26] = tested on: Mycobacterium tuberculosis; assay: Antimycobacterial activity against drug-susceptive Mycobacterium tuberculosis isolate A-1-2 by agar proportion method; assay type: functional
[27] = tested on: Mycobacterium tuberculosis; assay: Antimycobacterial activity against drug-susceptive Mycobacterium tuberculosis isolate A-3-19 by agar proportion method; assay type: functional
[28] = tested on: Mycobacterium tuberculosis; assay: Antimycobacterial activity against drug-susceptive Mycobacterium tuberculosis isolate A-3-15 by agar proportion method; assay type: functional
[29] = tested on: Mycobacterium tuberculosis; assay: Antimycobacterial activity against drug-susceptive Mycobacterium tuberculosis isolate A-3-21 by agar proportion method; assay type: functional
[30] = tested on: Mycobacterium tuberculosis; assay: Antimycobacterial activity against drug-susceptive Mycobacterium tuberculosis isolate A-1-1 by agar proportion method; assay type: functional
[31] = tested on: Mycobacterium tuberculosis; assay: Antimycobacterial activity against drug-susceptive Mycobacterium tuberculosis isolate A-3-20 by agar proportion method; assay type: functional
[32] = tested on: Mycobacterium tuberculosis; assay: Antimycobacterial activity against drug-susceptive Mycobacterium tuberculosis isolate A-3-11 by agar proportion method; assay type: functional
[33] = tested on: Mycobacterium tuberculosis; assay: Antimycobacterial activity against drug-susceptive Mycobacterium tuberculosis isolate A-3-5 by agar proportion method; assay type: functional
[34] = tested on: Mycobacterium tuberculosis; assay: Antimycobacterial activity against drug-susceptive Mycobacterium tuberculosis isolate A-3-2 by agar proportion method; assay type: functional
[35] = tested on: Mycobacterium tuberculosis; assay: Antimycobacterial activity against drug-susceptive Mycobacterium tuberculosis isolate A-3-1 by agar proportion method; assay type: functional
[36] = tested on: Mycobacterium tuberculosis; assay: Antimycobacterial activity against drug-susceptive Mycobacterium tuberculosis isolate A-3-17 by agar proportion method; assay type: functional

Molecule | MIC (Mycobacterium avium [8]) [µg/mL] | MIC (Staphylococcus aureus [9]) [µg/mL] | MIC [10] [µg/mL] | MIC [11] [µg/mL] | MIC (Mycobacterium avium [12]) [µg/mL] | MIC (Escherichia coli [13]) [µg/mL] | MIC [14] [µg/mL] | Ratio [15] | Ratio [16] | Ratio [17] | other results
GENTAMICIN | – | – | – | – | – | – | – | – | – | – | MIC [1]: 1.56 µg/mL; MIC [2]: 1.56 µg/mL; MIC (Mycobacterium avium [3]): 25 µg/mL; MIC (Escherichia coli [4]): 6.25 µg/mL; MIC (Mycobacterium avium [5]): 1.56 µg/mL; MIC [6]: 3.13 µg/mL; MIC (Staphylococcus aureus [7]): 25 µg/mL
CC(=O)N[C@@H]1[C@@H](O)[C@H](O)[C@@H](CSC(=S)N(C)C)O[C@H]1SC(=S)N(C)C | > 100 | > 100 | 25 (≈ 58.5 µM) | > 100 | > 100 | > 100 | > 100 | – | – | – | –
NC[C@H]1O[C@H](O[C@H]2[C@H](O)[C@@H](O[C@H]3O[C@H](CO)[C@@H](O)[C@H](N)[C@H]3O)[C@H](N)C[C@@H]2N)[C@H](O)[C@@H](O)[C@@H]1O [KANAMYCIN] | > 100 | 12.5 (≈ 25.8 µM) | 1.56 (≈ 3.22 µM) | 0.3 (≈ 0.619 µM) | 1.56 (≈ 3.22 µM) | 12.5 (≈ 25.8 µM) | 3.13 (≈ 6.46 µM) | – | – | – | –
CNC.Cl [DIMETHYLAMINE HCL] | – | – | > 100 | > 100 | – | – | > 100 | – | – | – | –
CC(=O)N[C@@H]1[C@@H](O)[C@@H](O)[C@@H](CO)O[C@H]1SC(=S)N(C)C | > 100 | > 100 | 12.5 (≈ 38.5 µM) | 25 (≈ 77.1 µM) | > 100 | > 100 | > 100 | – | – | – | –
CC(=O)N[C@@H]1[C@@H](OC(C)=O)[C@H](OC(C)=O)[C@@H](COC(C)=O)O[C@H]1SC(=S)N(C)C | > 100 | > 100 | > 100 | > 100 | > 100 | > 100 | > 100 | – | – | – | –
NNC(=O)c1ccncc1 [ISONIAZID] | 50 (≈ 365 µM) | > 100 | 0.04 (≈ 0.292 µM) | 0.04 (≈ 0.292 µM) | 3.13 (≈ 22.8 µM) | > 100 | 6.25 (≈ 45.6 µM) | 7325 | 53613 | 77277 | –
CN[C@@H]1[C@H](O[C@H]2[C@H](O[C@H]3[C@H](O)[C@@H](O)[C@H](N=C(N)N)[C@@H](O)[C@@H]3N=C(N)N)O[C@@H](C)[C@]2(O)C=O)O[C@@H](CO)[C@H](O)[C@H]1O [STREPTOMYCIN] | 0.39 (≈ 0.671 µM) | 50 (≈ 86 µM) | 0.39 (≈ 0.671 µM) | 0.2 (≈ 0.344 µM) | 0.39 (≈ 0.671 µM) | 50 (≈ 86 µM) | 0.39 (≈ 0.671 µM) | 4282 | 18367 | 32154 | –
CC(=O)N[C@H]1[C@@H](O)[C@H](O)[C@@H](CO)O[C@@H]1SC(=S)N(C)C | > 100 | > 100 | > 100 | > 100 | > 100 | > 100 | > 100 | – | – | – | –
CC(=O)N[C@@H]1[C@@H](O)[C@H](O)[C@@H](CO)O[C@H]1SC(=S)N(C)C | > 100 | > 100 | 25 (≈ 77.1 µM) | 31.3 (≈ 96.5 µM) | > 100 | > 100 | > 100 | 28 | 242 | 188 | MIC [18]: 6.25 µg/mL (≈ 19.3 µM); MIC [19]: 6.25 µg/mL (≈ 19.3 µM); MIC [20]: 6.25 µg/mL (≈ 19.3 µM); MIC [21]: 6.25 µg/mL (≈ 19.3 µM); MIC [22]: 6.25 µg/mL (≈ 19.3 µM); MIC [23]: 6.25 µg/mL (≈ 19.3 µM); MIC [24]: 6.25 µg/mL (≈ 19.3 µM); MIC [25]: 6.25 µg/mL (≈ 19.3 µM); MIC [26]: 6.25 µg/mL (≈ 19.3 µM); MIC [27]: 6.25 µg/mL (≈ 19.3 µM); MIC [28]: 6.25 µg/mL (≈ 19.3 µM); MIC [29]: 6.25 µg/mL (≈ 19.3 µM); MIC [30]: 6.25 µg/mL (≈ 19.3 µM); MIC [31]: 6.25 µg/mL (≈ 19.3 µM); MIC [32]: 6.25 µg/mL (≈ 19.3 µM); MIC [33]: 6.25 µg/mL (≈ 19.3 µM); MIC [34]: 6.25 µg/mL (≈ 19.3 µM); MIC [35]: 6.25 µg/mL (≈ 19.3 µM); MIC [36]: 12.5 µg/mL (≈ 38.5 µM)
CC[C@@H](CO)NCCN[C@@H](CC)CO [ETHAMBUTOL] | 3.13 (≈ 15.3 µM) | > 100 | 2.5 (≈ 12.2 µM) | 1.5 (≈ 7.34 µM) | 1.56 (≈ 7.64 µM) | > 100 | 12.5 (≈ 61.2 µM) | 111 | 916 | 1434 | –
CNC [DIMETHYLAMINE] | – | – | > 100 | > 100 | – | – | > 100 | – | – | – | –
NCC[C@H](O)C(=O)N[C@@H]1C[C@H](N)[C@@H](O[C@H]2O[C@H](CN)[C@@H](O)[C@H](O)[C@H]2O)[C@H](O)[C@H]1O[C@H]1O[C@H](CO)[C@@H](O)[C@H](N)[C@H]1O [AMIKACIN] | > 100 | 100 (≈ 171 µM) | 1.75 (≈ 2.99 µM) | 0.78 (≈ 1.33 µM) | 1.56 (≈ 2.66 µM) | 50 (≈ 85.4 µM) | 1.25 (≈ 2.13 µM) | – | – | – | –
CC(=O)N[C@H]1[C@H](OC(C)=O)O[C@H](COC(C)=O)[C@@H](OC(C)=O)[C@@H]1OC(C)=O | – | – | > 100 | > 100 | – | – | > 100 | – | – | – | –
CO[C@H]1/C=C/O[C@@]2(C)Oc3c(C)c(O)c4c(O)c(c(/C=N/N5CCN(C)CC5)c(O)c4c3C2=O)NC(=O)/C(C)=C\C=C\[C@H](C)[C@H](O)[C@@H](C)[C@@H](O)[C@@H](C)[C@H](OC(C)=O)[C@@H]1C [RIFAMPIN] | < 0.05 | 0.002 (≈ 0.00243 µM) | 0.004 (≈ 0.00486 µM) | 0.004 (≈ 0.00486 µM) | 0.004 (≈ 0.00486 µM) | 50 (≈ 60.8 µM) | 1.56 (≈ 1.9 µM) | 16250 | 16256 | 44510 | –
CN(C)C(=S)[S-].[Na+] [SODIUM DIMETHYLCARBAMODITHIOATE] | – | > 100 | 0.78 | 0.78 | – | > 100 | > 100 | 14 | 88 | 318 | –
Nc1ccc(C(=O)O)c(O)c1 [AMINOSALICYLIC ACID] | 100 (≈ 653 µM) | > 100 | 0.16 (≈ 1.04 µM) | 50 (≈ 327 µM) | 100 (≈ 653 µM) | > 100 | 1000 (≈ 6530 µM) | – | – | – | –
